Patent US8058295B2, “Cystic fibrosis transmembrane conductance regulator protein inhibitors and uses thereof” (The Regents of the University of California, priority 2002, dated 2011)
pIC50: −log10 of the molar value.

How the values were obtained:
[1] = biological target: T1, MDR-1 (Homo sapiens, UniProt P08183); experiment: MDR-1 activity, ^3H-vincristine accumulation in 9HTEo-/Dx cells; assay type: cell-based; details: 5 μM
T1 construct: endogenous in cells; host or cells: 9HTEo-/Dx cells

[2] = biological target: T2, ATP-sensitive K^+ channels (Rattus norvegicus, UniProt Q09429); experiment: Membrane potential recording in INS-1 pancreatic β cells (K-ATP channels); assay type: cell-based
T2 construct: endogenous in cells; host or cells: INS-1 rat pancreatic β cell line
T2 sequence (Q09429 whole entry): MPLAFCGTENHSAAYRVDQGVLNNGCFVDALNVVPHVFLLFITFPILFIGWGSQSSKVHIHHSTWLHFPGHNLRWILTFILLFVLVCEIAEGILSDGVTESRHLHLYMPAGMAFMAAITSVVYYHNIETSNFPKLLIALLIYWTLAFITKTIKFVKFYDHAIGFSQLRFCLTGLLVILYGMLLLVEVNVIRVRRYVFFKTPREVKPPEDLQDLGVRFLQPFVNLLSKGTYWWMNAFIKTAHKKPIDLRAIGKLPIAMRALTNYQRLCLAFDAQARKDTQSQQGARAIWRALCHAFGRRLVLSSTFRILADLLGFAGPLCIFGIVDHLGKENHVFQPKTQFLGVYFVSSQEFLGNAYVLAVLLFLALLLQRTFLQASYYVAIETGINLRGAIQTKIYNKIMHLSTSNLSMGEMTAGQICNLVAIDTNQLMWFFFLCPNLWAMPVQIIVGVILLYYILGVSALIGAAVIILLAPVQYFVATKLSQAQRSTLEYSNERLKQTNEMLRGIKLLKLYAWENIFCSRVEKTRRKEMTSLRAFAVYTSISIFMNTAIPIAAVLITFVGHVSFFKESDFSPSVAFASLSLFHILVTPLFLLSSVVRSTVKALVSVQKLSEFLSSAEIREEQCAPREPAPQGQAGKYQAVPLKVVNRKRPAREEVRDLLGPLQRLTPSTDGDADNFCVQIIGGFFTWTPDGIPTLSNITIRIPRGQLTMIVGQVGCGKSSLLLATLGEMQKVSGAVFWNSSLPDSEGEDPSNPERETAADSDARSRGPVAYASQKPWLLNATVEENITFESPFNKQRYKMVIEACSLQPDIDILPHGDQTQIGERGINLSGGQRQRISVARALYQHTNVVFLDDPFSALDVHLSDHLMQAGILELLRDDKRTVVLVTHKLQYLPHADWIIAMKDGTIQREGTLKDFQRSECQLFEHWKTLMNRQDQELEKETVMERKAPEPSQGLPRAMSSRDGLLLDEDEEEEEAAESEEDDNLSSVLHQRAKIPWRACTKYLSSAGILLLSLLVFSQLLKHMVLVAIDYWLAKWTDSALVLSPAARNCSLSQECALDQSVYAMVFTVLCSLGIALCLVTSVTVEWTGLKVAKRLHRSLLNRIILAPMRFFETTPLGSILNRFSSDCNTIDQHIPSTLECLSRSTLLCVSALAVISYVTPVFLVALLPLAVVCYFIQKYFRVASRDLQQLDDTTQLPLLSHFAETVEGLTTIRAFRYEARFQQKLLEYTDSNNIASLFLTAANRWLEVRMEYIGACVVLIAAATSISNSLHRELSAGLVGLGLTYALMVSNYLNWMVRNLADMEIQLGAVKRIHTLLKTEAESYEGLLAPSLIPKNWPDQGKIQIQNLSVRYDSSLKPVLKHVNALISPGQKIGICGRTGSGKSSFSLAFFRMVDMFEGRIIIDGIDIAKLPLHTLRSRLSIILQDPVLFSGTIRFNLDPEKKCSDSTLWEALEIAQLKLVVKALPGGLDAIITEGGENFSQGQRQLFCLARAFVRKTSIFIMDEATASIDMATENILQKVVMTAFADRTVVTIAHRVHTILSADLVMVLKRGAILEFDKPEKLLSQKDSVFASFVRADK
T2 sequence (P70673 whole entry partner): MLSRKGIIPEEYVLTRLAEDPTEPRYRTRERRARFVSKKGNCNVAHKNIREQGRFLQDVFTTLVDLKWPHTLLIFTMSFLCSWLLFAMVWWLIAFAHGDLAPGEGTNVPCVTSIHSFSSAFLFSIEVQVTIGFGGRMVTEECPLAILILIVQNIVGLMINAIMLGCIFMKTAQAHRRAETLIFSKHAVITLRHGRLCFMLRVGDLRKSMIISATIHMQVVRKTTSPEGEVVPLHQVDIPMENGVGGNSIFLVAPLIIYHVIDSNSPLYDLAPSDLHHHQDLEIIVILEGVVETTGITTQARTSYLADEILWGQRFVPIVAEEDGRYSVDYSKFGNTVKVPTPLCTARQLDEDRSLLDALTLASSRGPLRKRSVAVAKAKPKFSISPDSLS

[3] = biological target: T3, urea transporter (UT-B) (Homo sapiens, UniProt Q13336); experiment: Urea transporter block; details: 5 μM
T3 sequence (Q13336 1-389): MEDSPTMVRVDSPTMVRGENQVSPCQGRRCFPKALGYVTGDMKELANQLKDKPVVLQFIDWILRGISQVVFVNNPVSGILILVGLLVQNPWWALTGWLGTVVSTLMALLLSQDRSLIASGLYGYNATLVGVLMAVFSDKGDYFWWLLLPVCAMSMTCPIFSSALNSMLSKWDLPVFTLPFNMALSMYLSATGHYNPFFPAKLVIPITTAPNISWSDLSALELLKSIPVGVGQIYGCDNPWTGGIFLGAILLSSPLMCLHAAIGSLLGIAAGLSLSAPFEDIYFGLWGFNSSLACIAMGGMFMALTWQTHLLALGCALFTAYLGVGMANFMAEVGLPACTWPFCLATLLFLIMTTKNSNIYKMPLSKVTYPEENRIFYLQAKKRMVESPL

[4] = tested on: cellular cAMP production; experiment: Intracellular cAMP assay in FRT cells; assay type: cell-based, rat
[5] = tested on: cholera toxin-induced fluid secretion; parameters: species or system mice; details: mouse, in vivo, po
[6] = Tissue distribution in rats after intravenous bolus; assay type: in vivo; details: 60 min after i.v. bolus
Protocol: A bolus of ^14C-CFTRinh-172 (2 μCi) was administered intravenously over 1 min in mice (male CD1 mice, 30-35 grams) by tail vein. Mice were sacrificed at 5, 30, 120 and 240 min. Organs were removed, weighed and homogenized in distilled water (10-50 vol %). Radioactivity was determined by scintillation counting of the homogenates (25-50 μL) and expressed as total ^14C-radioactivity per organ (or per gram tissue for skeletal muscle). At the same time blood, urine and bile (from gallbladder or duodenum) were collected and ^14C-radioactivity was measured and expressed per mL of fluid. Elimination studies were done by collections of urine and stool over the first 24 hr after ^14C-CFTRinh-172 administration. Tissue distribution studies were also done on rats prepared as for pharmacokinetic studies.

[7] = biological target: wildtype CFTR (Homo sapiens, UniProt P13569); experiment: YFP fluorescence assay of CFTR-mediated I^− transport in FRT cells; assay type: cell-based; parameters: expressed in transfected cells; host or cells: Fischer rat thyroid (FRT) cells
wildtype CFTR, sequence (P13569 whole entry): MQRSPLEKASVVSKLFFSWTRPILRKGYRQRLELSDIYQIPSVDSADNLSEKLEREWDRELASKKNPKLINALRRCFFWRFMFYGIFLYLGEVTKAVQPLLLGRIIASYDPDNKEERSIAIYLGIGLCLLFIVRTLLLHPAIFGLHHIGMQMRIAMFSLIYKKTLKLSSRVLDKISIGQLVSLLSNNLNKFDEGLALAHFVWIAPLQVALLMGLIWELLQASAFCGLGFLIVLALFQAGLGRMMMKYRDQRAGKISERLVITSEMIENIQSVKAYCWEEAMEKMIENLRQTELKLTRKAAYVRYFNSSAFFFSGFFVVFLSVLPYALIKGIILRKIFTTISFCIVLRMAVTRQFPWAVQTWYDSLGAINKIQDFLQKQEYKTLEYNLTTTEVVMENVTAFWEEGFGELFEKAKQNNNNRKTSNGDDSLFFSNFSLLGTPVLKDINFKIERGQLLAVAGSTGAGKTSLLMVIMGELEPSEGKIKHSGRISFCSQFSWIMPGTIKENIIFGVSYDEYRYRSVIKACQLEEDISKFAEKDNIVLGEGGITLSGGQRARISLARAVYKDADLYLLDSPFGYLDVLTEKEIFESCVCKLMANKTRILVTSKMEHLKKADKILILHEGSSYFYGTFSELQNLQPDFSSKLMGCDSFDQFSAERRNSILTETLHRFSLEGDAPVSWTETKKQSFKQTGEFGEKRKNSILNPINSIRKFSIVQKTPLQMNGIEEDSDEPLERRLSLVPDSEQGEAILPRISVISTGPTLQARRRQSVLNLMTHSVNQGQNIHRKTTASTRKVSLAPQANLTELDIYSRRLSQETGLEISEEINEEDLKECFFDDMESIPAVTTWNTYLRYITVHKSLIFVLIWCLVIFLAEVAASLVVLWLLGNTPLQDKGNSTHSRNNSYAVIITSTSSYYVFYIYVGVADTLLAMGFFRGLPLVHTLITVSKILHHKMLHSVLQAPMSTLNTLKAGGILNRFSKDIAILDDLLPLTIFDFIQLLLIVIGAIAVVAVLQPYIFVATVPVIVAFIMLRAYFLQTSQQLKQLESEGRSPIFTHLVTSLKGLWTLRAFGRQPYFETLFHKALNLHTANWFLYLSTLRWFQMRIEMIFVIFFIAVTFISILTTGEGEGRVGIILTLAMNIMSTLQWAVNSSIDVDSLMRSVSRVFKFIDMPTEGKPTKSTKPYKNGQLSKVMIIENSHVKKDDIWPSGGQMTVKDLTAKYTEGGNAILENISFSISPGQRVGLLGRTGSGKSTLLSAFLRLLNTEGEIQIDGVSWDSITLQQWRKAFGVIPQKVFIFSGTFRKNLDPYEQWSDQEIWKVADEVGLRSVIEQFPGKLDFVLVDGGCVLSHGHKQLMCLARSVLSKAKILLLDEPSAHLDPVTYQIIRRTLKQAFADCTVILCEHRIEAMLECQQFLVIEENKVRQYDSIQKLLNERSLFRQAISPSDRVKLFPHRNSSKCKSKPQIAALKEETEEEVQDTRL
Protocol: FIG. 1A is a schematic representation of a screening technique used for detection of CFTR inhibitors. CFTR was maximally stimulated by multiple agonists in stably transfected epithelial cells co-expressing human CFTR and a yellow fluorescent protein (YFP) having Cl^−/I^− sensitive fluorescence. After addition of a test compound, I^− influx was induced by adding an I^− containing solution.
Cells were plated in 96-well black-walled microplates (Corning Costar) at a density of 20,000 cells per well in Coon's modified F12 medium supplemented with 5% fetal calf serum, 2 mM L-glutamine, 100 U/mL penicillin, and 100 μg/mL streptomycin. Assays were done at 48 hours after plating at which time cells were just confluent (˜40,000 cells per well).
Assays were done using a customized screening system (Beckman) consisting of a 3-meter robotic arm, CO2 incubator, plate washer, liquid handling workstation, bar code reader, delidding station, and two FluoStar fluorescence plate readers (BMG Labtechnologies, Offenburg, Germany), each equipped with two syringe pumps and HQ500/20X (500±10 nm) excitation and HQ535/30M (535±15 nm) emission filters (Chroma). The robotic system was integrated using SAMI version 3.3 software (Beckman) modified for two plate readers. Custom software was written in VBA (Visual Basic for Applications) to compute baseline-subtracted, normalized fluorescence slopes (giving halide influx rates) from stored data files.
The assay was set-up by loading the incubator (37° C., 90% humidity, 5% CO2) with 40-60 96-well plates containing the FRT cells, and loading a carousel with 96-well plates containing test compounds and disposable plastic pipette tips. To initiate the assay, each well of a 96-well plate was washed 3 times in PBS (300 μL/wash), leaving 50 μL PBS. Ten μL of a CFTR-activating cocktail (5 μM forskolin, 100 μM IBMX, 25 μM apigenin in PBS) was added, and after 5 min one test compound (0.5 μL of 1 mM DMSO solution) was added to each well to give 10 μM final concentration. After 10 min, 96-well plates were transferred to a plate reader for fluorescence assay. Each well was assayed individually for CFTR-mediated I^− transport by recording fluorescence continuously (200 ms per point) for 2 s (baseline) and then for 12 s after rapid (<0.5 s) addition of 160 μL of isosmolar PBS in which 137 mM Cl^− was replaced by I^−.
The primary screening technique used to identify the compounds of the invention was designed to identify inhibitors of CFTR Cl^− conductance by direct CFTR-inhibitor interaction. CFTR was pre-stimulated in CFTR-expressing FRT cells by an activating cocktail containing forskolin, IBMX and apigenin, as shown schematically in FIG. 1A. The activation of CFTR by multiple mechanisms (cAMP elevation, phosphodiesterase inhibition, and direct CFTR binding) allowed identification of inhibitors that blocked the CFTR Cl^− transporting pathway directly rather than more proximal step(s) in a signaling pathway. The FRT cells co-expressed a yellow fluorescent protein-based Cl^−/I^− sensor that provided a quantitative fluorescence read-out of inhibition potency (See, e.g., Jayaraman et al., 2000, J. Biol. Chem. 275:6047-6050; Galietta et al., 2001, Am. J. Physiol. 281:C1734-C1742.). After CFTR pre-stimulation and compound addition, cells were subjected to an inwardly-directed I^− gradient to drive I^− influx and produce decreasing fluorescence. Each assay consisted of recording baseline fluorescence for 2 seconds, followed by 12 seconds of continuous recording of fluorescence after rapid addition of the I^− containing solution. Compounds were tested separately at 10 μM concentration in a 96-well format utilizing a fully-automated high-throughput screening apparatus (see Example 2 below).

[8] = biological target: CFTR (Homo sapiens, UniProt P13569); experiment: Electrophysiological studies in Calu-3 cells; assay type: cell-based; parameters: cells that natively express wildtype CFTR, including T84 cells; endogenous in cells; host or cells: T84 colonic epithelial cells (UCSF cell culture facility); details: read-out: apparent potency in electrophysiological studies
CFTR, sequence (P13569 whole entry): as above

T1 sequence (P08183 whole entry): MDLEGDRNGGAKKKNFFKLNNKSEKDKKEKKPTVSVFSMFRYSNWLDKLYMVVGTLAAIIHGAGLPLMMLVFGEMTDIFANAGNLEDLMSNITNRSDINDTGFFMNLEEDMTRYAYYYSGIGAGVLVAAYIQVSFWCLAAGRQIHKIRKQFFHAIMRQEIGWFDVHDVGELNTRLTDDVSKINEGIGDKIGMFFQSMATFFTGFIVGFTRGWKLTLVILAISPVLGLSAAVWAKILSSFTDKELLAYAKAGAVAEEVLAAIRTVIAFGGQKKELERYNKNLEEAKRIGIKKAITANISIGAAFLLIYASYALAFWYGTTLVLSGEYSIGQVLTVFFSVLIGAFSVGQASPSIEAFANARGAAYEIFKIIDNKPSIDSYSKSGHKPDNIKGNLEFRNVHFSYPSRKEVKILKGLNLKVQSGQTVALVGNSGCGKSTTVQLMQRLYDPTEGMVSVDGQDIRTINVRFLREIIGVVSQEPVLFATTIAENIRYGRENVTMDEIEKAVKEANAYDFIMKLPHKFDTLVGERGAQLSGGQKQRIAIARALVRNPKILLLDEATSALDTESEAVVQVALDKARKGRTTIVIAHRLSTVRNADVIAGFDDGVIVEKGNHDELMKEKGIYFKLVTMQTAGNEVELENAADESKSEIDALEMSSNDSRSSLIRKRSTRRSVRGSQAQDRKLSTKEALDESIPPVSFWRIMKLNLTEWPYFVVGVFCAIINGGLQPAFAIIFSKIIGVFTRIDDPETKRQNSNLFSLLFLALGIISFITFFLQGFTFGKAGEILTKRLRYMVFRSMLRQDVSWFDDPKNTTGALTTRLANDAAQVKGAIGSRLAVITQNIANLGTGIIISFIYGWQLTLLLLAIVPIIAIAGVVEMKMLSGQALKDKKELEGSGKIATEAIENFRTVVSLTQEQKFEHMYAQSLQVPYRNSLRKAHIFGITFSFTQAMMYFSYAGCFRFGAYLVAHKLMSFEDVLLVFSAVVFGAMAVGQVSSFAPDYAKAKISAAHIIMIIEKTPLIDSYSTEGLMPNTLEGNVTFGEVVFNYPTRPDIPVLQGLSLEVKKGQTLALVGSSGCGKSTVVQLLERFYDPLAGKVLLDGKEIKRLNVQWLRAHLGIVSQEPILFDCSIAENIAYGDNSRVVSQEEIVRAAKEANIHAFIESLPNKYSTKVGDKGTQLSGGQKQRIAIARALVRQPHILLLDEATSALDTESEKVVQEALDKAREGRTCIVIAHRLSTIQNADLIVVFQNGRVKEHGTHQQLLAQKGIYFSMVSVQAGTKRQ

O=C(O)c1ccc(/C=C2\SC(=S)N(c3cccc(C(F)(F)F)c3)C2=O)cc1 [CFTRinh-172, 3-[(3-trifluoromethyl)phenyl]-5-[(4-carboxyphenyl)methylene]-2-thioxo-4-thiazolidinone]
vincristine accumulation [1]: did not affect vincristine accumulation
effect on membrane potential ([2]; 5 μM): small hyperpolarization
effect on membrane potential ([2]; 2 and 5 μM): did not depolarize membrane potential
block of urea transporter (UT-B) [3]: did not block
effect on cellular cAMP production ([4]; 5 μM): did not affect
cAMP content ([4]; 30 min after 20 μM forskolin, + inhibitor (n=3)): 1140±50 fmol/well
cholera toxin-induced fluid secretion [5]: Inhibition of cholera toxin-induced fluid secretion
organ distribution of ^14C radioactivity [6]: little radioactivity in brain, heart and skeletal muscle
concentration giving significant CFTR inhibition ([7]; dose-inhibition, FIG. 2A): 0.3 to 0.6 µM
relative potency (CFTR inhibition) ([7]; relative to CFTRinh-172 = 1.0): 1.0
pIC50 [8]: 6.30
